Among the data in patent publication US6624120B1, “Substituted herbicidal phenyluracils” (priority 1999, dated 2003) are chromatographic logP and melting point values, retold here.

What is called chromatographic logP is lipophilicity estimated from chromatographic retention. The low end stands for lower lipophilicity, the high end for higher lipophilicity. As a reminder, the melting point is the temperature, or range, at which the solid turns liquid.

A short description of data set [1]: logP determination by HPLC (EEC Directive 79/831 Annex V.A8), reversed-phase column C 18. The format is physicochemical. The procedure:
The logP values given in Table 1 were determined in accordance with EEC Directive 79/831 Annex V.A8 by HPLC (High Performance Liquid Chromatography) using a reversed-phase column (C 18). Temperature: 43° C.
(a) Mobile phases for the determination in the acidic range: 0.1% aqeuous phosphoric acid, acetonitrile; linear gradient from 10% acetonitrile to 90% acetonitrile—the corresponding test results in Table 1 are labelled^a).
(b) Mobile phases for the determination in the neutral range: 0.01 molar aqueous phosphate buffer solution, acetonitrile; linear gradient from 10% acetonitrile to 90% acetonitrile—the corresponding test results in Table 1 are labelled^b).
Calibration was carried out using unbranched alkan-2-ones (having 3 to 16 carbon atoms) with known logP values (determination of the logP values by the retention times using linear interpolation between two successive alkanones).

The mark [2] stands for this setting: reversed-phase HPLC column (C 18); a) acidic range: 0.1% aqueous phosphoric acid/acetonitrile gradient, 43° C.

`CCOC(=O)NC1=CC(=O)N(c2cc(Oc3ccc4cc(OC)ccc4c3)c(C#N)cc2F)C1=O` [Example (VII-1), ethyl [1-(4-cyano-2-fluoro-5-(6-methoxy-naphthalen-2-yl-oxy)-phenyl)-2,5-dioxo-2,5-dihydro-1H-pyrrol-3-yl]-carbamate] showed a chromatographic logP in data set [1] (mobile-phase label not given) of 3.63.

Take `Cn1c(C(F)(F)F)cc(=O)n(-c2cc(Oc3ccc4cc(O)ccc4c3)c(C#N)cc2F)c1=O`: the melting point is 174 °C. In data set [1] (reversed-phase HPLC column (C 18), at pH 2.3), `CCOC(=O)[C@@H](C)Oc1ccc2cc(Oc3cc(-n4c(=O)cc(C(F)(F)F)n(C)c4=O)c(F)cc3C#N)ccc2c1` [Example 6, ethyl (R)-2-[6-(2-cyano-4-fluoro-5-[3-methyl-2,6-dioxo-4-trifluoromethyl-3,6-dihydro-1(2H)-pyrimidinyl]-phenoxy)-2-naphthyl-oxy]-propanoate] displayed a chromatographic logP of 3.99. Consider `COc1ccc2cc(Oc3cc(-n4c(=O)cc(C(N)=O)n(C)c4=O)c(F)cc3C#N)ccc2c1` [Example 35, 1-[4-cyano-2-fluoro-5-(6-methoxy-naphthalen-2-yl-oxy)-phenyl]-2,6-dioxo-3-methyl-1,2,3,6-tetrahydro-pyrimidine4-carboxamide], for which the chromatographic logP in data set [1] (setting [2]) amounted to 2.06. Molecule `CCOC(=O)C(C)Oc1ccc2ccc(Oc3cc(-n4c(=O)cc(C(F)(F)F)n(C)c4=O)c(F)cc3C#N)cc2c1` (racemic) showed a melting point of 133 °C.

Take `COc1ccc2cc(Oc3cc(-n4c(=O)cc(C(=O)O)[nH]c4=O)c(F)cc3C#N)ccc2c1` [Example 31, 1-[4-cyano-2-fluoro-5-(6-methoxy-naphthalen-2-yl-oxy)-phenyl]-2,6-dioxo-1,2,3,6-tetrahydro-pyrimidine-4-carboxylic acid]: in data set [1] (setting [2]), the chromatographic logP is 2.11. Consider `N#Cc1cc(F)c(-n2c(=O)cc(C(F)(F)F)[nH]c2=O)cc1Oc1ccc2ccccc2c1`, for which the melting point came to 92 °C.

In data set [1] (setting [2]), `COC(=O)c1cc(=O)n(-c2cc(Oc3ccc4cc(OC)ccc4c3)c(C#N)cc2F)c(=O)n1C` [Example 33, methyl I-[4-cyano-2-fluoro-5-(6-methoxy-naphthalen-2-yl-oxy)-phenyl]-2,6-dioxo-3-methyl-1,2,3,6-tetrahydro-pyrimidine-4-carboxylate] registered a chromatographic logP of 3.22. `N#Cc1cc(F)c(-n2c(=O)cc(C(F)(F)F)[nH]c2=O)cc1Oc1cccc2c(O)cccc12` displayed a melting point of 168 °C.

Regarding `COc1cccc2c(Oc3cc(-n4c(=O)cc(C(F)(F)F)n(C)c4=O)c(F)cc3C#N)cccc12`, the melting point was 109 °C.
